Laboratory results as given in ChEMBL document CHEMBL2311510, “A new single-photon emission computed tomography (SPECT) imaging agent for serotonin transporters: [(125)I]Flip-IDAM, (2-((2-((dimethylamino)methyl)-4-iodophenyl)thio)phenyl)methanol” (Bioorg Med Chem Lett, 2013).

Assays:
Spleen [1] = test: Biodistribution in Sprague-Dawley rat spleen assessed as compound level per organ at 11 uCi, iv measured 2 mins post compound dose; format: ADME, organism-based; conditions: in vivo
Nucleic Acid [2] = test: Ratio of drug level in hippocampus to cerebellum in Sprague-Dawley rat at 11 uCi, iv measured 120 mins post compound dose; format: ADME, organism-based; conditions: in vivo, 2 h
Nucleic Acid [3] = test: Ratio of drug level in rest of brain region to cerebellum in Sprague-Dawley rat at 11 uCi, iv measured 60 mins post compound dose; format: ADME, organism-based; conditions: in vivo, 1 h
Nucleic Acid [4] = test: Ratio of drug level in striatum to cerebellum in Sprague-Dawley rat at 11 uCi, iv measured 60 mins post compound dose; format: ADME, organism-based; conditions: in vivo, 1 h
Nucleic Acid [5] = test: Ratio of drug level in cortex to cerebellum in Sprague-Dawley rat at 11 uCi, iv measured 30 mins post compound dose; format: ADME, organism-based; conditions: in vivo, 0.5 h
Nucleic Acid [6] = test: Ratio of drug level in hippocampus to cerebellum in Sprague-Dawley rat at 11 uCi, iv measured 30 mins post compound dose; format: ADME, organism-based; conditions: in vivo, 0.5 h
Striatum [7] = test: Biodistribution in Sprague-Dawley rat striatum at 11 uCi, iv measured 120 mins post compound dose; format: ADME, organism-based; conditions: in vivo, 2 h
Cerebellum = test: Biodistribution in Sprague-Dawley rat cerebellum at 11 uCi, iv measured 120 mins post compound dose; format: ADME, organism-based; conditions: in vivo, 2 h
Cortex = test: Biodistribution in Sprague-Dawley rat cortex at 11 uCi, iv measured 60 mins post compound dose; format: ADME, organism-based; conditions: in vivo, 1 h
Brain [8] = test: Biodistribution in Sprague-Dawley rat rest of brain at 11 uCi, iv measured 30 mins post compound dose; format: ADME, organism-based; conditions: in vivo, 0.5 h
Hippocampus [9] = test: Biodistribution in Sprague-Dawley rat hippocampus at 11 uCi, iv measured 30 mins post compound dose; format: ADME, organism-based; conditions: in vivo, 0.5 h
Striatum [10] = test: Biodistribution in Sprague-Dawley rat striatum at 11 uCi, iv measured 30 mins post compound dose; format: ADME, organism-based; conditions: in vivo, 0.5 h
Hippocampus [11] = test: Biodistribution in Sprague-Dawley rat hippocampus at 11 uCi, iv measured 2 mins post compound dose; format: ADME, organism-based; conditions: in vivo
Spleen [12] = test: Biodistribution in Sprague-Dawley rat spleen at 11 uCi, iv measured 120 mins post compound dose; format: ADME, organism-based; conditions: in vivo, 2 h
Muscle tissue [13] = test: Biodistribution in Sprague-Dawley rat muscle at 11 uCi, iv measured 120 mins post compound dose; format: ADME, organism-based; conditions: in vivo, 2 h
Liver [14] = test: Biodistribution in Sprague-Dawley rat liver at 11 uCi, iv measured 60 mins post compound dose; format: ADME, organism-based; conditions: in vivo, 1 h
Liver [15] = test: Biodistribution in Sprague-Dawley rat liver at 11 uCi, iv measured 30 mins post compound dose; format: ADME, organism-based; conditions: in vivo, 0.5 h
Pancreas [16] = test: Biodistribution in Sprague-Dawley rat pancreas at 11 uCi, iv measured 30 mins post compound dose; format: ADME, organism-based; conditions: in vivo, 0.5 h
Kidney [17] = test: Biodistribution in Sprague-Dawley rat kidney at 11 uCi, iv measured 30 mins post compound dose; format: ADME, organism-based; conditions: in vivo, 0.5 h
Muscle tissue [18] = test: Biodistribution in Sprague-Dawley rat muscle at 11 uCi, iv measured 30 mins post compound dose; format: ADME, organism-based; conditions: in vivo, 0.5 h
Zone of skin = test: Biodistribution in Sprague-Dawley rat skin assessed as compound level per organ at 11 uCi, iv measured 120 mins post compound dose; format: ADME, organism-based; conditions: in vivo, 2 h
Kidney [19] = test: Biodistribution in Sprague-Dawley rat kidney assessed as compound level per organ at 11 uCi, iv measured 120 mins post compound dose; format: ADME, organism-based; conditions: in vivo, 2 h
Liver [20] = test: Biodistribution in Sprague-Dawley rat liver assessed as compound level per organ at 11 uCi, iv measured 60 mins post compound dose; format: ADME, organism-based; conditions: in vivo, 1 h
Pancreas [21] = test: Biodistribution in Sprague-Dawley rat pancreas assessed as compound level per organ at 11 uCi, iv measured 60 mins post compound dose; format: ADME, organism-based; conditions: in vivo, 1 h
Kidney [22] = test: Biodistribution in Sprague-Dawley rat kidney assessed as compound level per organ at 11 uCi, iv measured 60 mins post compound dose; format: ADME, organism-based; conditions: in vivo, 1 h
Blood = test: Biodistribution in Sprague-Dawley rat blood assessed as compound level per organ at 11 uCi, iv measured 60 mins post compound dose; format: ADME, organism-based; conditions: in vivo, 1 h
Brain [23] = test: Biodistribution in Sprague-Dawley rat brain assessed as compound level per organ at 11 uCi, iv measured 30 mins post compound dose; format: ADME, organism-based; conditions: in vivo, 0.5 h
Bone = test: Biodistribution in Sprague-Dawley rat bone assessed as compound level per organ at 11 uCi, iv measured 30 mins post compound dose; format: ADME, organism-based, Bone element; conditions: in vivo, 0.5 h
Liver [24] = test: Biodistribution in Sprague-Dawley rat liver assessed as compound level per organ at 11 uCi, iv measured 30 mins post compound dose; format: ADME, organism-based; conditions: in vivo, 0.5 h

Drug uptake (Spleen [1]): 1.04 %ID
Ratio (Nucleic Acid [2]): 1.5
Ratio (Nucleic Acid [3]): 1.1
Ratio (Nucleic Acid [4]): 2.12
Ratio (Nucleic Acid [5]): 0.82
Ratio (Nucleic Acid [6]): 2.67
Drug uptake (Striatum [7]): 0.1 % ID/g
Drug uptake (Cerebellum): 0.05 % ID/g
Drug uptake (Cortex): 0.2 % ID/g
Drug uptake (Brain [8]): 0.55 % ID/g
Drug uptake (Hippocampus [9]): 0.66 % ID/g
Drug uptake (Striatum [10]): 0.78 % ID/g
Drug uptake (Hippocampus [11]): 1.28 % ID/g
Drug uptake (Spleen [12]): 0.12 % ID/g
Drug uptake (Muscle tissue [13]): 0.06 % ID/g
Drug uptake (Liver [14]): 0.48 % ID/g
Drug uptake (Liver [15]): 1.28 % ID/g
Drug uptake (Pancreas [16]): 0.56 % ID/g
Drug uptake (Kidney [17]): 1.45 % ID/g
Drug uptake (Muscle tissue [18]): 0.21 % ID/g
Drug uptake (Zone of skin): 4.07 %ID
Drug uptake (Kidney [19]): 1.06 %ID
Drug uptake (Liver [20]): 3.8 %ID
Drug uptake (Pancreas [21]): 0.1 %ID
Drug uptake (Kidney [22]): 1.44 %ID
Drug uptake (Blood): 3.26 %ID
Drug uptake (Brain [23]): 1.13 %ID
Drug uptake (Bone): 0.02 %ID
Drug uptake (Liver [24]): 9.09 %ID
SMILES: CN(C)Cc1cc([125I])ccc1Sc1ccccc1CO
